Test results taken from ChEMBL document CHEMBL2434921, “New synthetic aliphatic sulfonamido-quaternary ammonium salts as anticancer chemotherapeutic agents” (2013).
The source made the active and inactive calls. No cut-off for these calls is given here.

Columns and labels:
[1] = molecular target: Rho-related GTP-binding protein RhoB (Homo sapiens) (UniProt P62745); assay: Transactivation of RhoB (unknown origin) transfected in human HeLa cells at 5 uM measured over 10 secs by dual luciferase reporter gene assay; format: cell-based
PC-3 [2] = assay: Growth inhibition of human PC3 cells at 0.3 uM after 48 hrs by SRB assay; values are per cent of control; conditions: PC-3, 48 h
PC-3 [3] = assay: Growth inhibition of human PC3 cells at 3 uM after 48 hrs by SRB assay; values are per cent of control; conditions: PC-3, 48 h
NCI-H23 [4] = assay: Growth of human NCI-H23 cells at 10 uM after 48 hrs by SRB assay; conditions: NCI-H23, 48 h
ACHN [5] = assay: Growth inhibition of human ACHN cells after 48 hrs by SRB assay; format: functional
HCT-15 [6] = assay: Growth inhibition of human HCT15 cells after 48 hrs by SRB assay; format: functional
NUGC-3 [7] = assay: Growth inhibition of human NUGC3 cells after 48 hrs by SRB assay; format: functional; conditions: NUGC-3, 48 h
NUGC-3 [8] = assay: Growth of human NUGC3 cells at 0.1 uM after 48 hrs by SRB assay; conditions: NUGC-3, 48 h
NUGC-3 [9] = assay: Growth inhibition of human NUGC3 cells at 3 uM after 48 hrs by SRB assay; values are per cent of control; conditions: NUGC-3, 48 h
ACHN [10] = assay: Growth of human ACHN cells at 0.1 uM after 48 hrs by SRB assay
HCT-15 [11] = assay: Growth inhibition of human HCT15 cells at 10 uM after 48 hrs by SRB assay; values are per cent of control; conditions: HCT-15, 48 h
PC-3 [12] = assay: Growth of human PC3 cells at 10 uM after 48 hrs by SRB assay; conditions: PC-3, 48 h
NUGC-3 [13] = assay: Growth of human NUGC3 cells at 1 uM after 48 hrs by SRB assay; conditions: NUGC-3, 48 h
MDA-MB-231 [14] = assay: Growth inhibition of human MDA-MB-231 cells at 0.3 uM after 48 hrs by SRB assay; values are per cent of control; conditions: MDA-MB-231, 48 h
PC-3 [15] = assay: Growth inhibition of human PC3 cells at 1 uM after 48 hrs by SRB assay; values are per cent of control; conditions: PC-3, 48 h
MDA-MB-231 [16] = assay: Growth of human MDA-MB-231 cells at 10 uM after 48 hrs by SRB assay; conditions: MDA-MB-231, 48 h
NCI-H23 [17] = assay: Growth of human NCI-H23 cells at 0.3 uM after 48 hrs by SRB assay; conditions: NCI-H23, 48 h
MDA-MB-231 [18] = assay: Growth of human MDA-MB-231 cells at 3 uM after 48 hrs by SRB assay; values are per cent of control; conditions: MDA-MB-231, 48 h
HCT-15 [19] = assay: Growth of human HCT15 cells at 0.3 uM after 48 hrs by SRB assay; conditions: HCT-15, 48 h
MDA-MB-231 [20] = assay: Growth of human MDA-MB-231 cells at 0.1 uM after 48 hrs by SRB assay; conditions: MDA-MB-231, 48 h
PC-3 [21] = assay: Growth inhibition of human PC3 cells at 0.1 uM after 48 hrs by SRB assay; values are per cent of control; conditions: PC-3, 48 h
ACHN [22] = assay: Growth inhibition of human ACHN cells at 3 uM after 48 hrs by SRB assay; values are per cent of control
HCT-15 [23] = assay: Growth inhibition of human HCT15 cells at 0.1 uM after 48 hrs by SRB assay; values are per cent of control; conditions: HCT-15, 48 h
MDA-MB-231 [24] = assay: Growth inhibition of human MDA-MB-231 cells after 48 hrs by SRB assay; format: functional; conditions: MDA-MB-231, 48 h
ACHN [25] = assay: Growth inhibition of human ACHN cells at 1 uM after 48 hrs by SRB assay; values are per cent of control
HCT-15 [26] = assay: Growth of human HCT15 cells at 3 uM after 48 hrs by SRB assay; conditions: HCT-15, 48 h
NCI-H23 [27] = assay: Growth inhibition of human NCI-H23 cells after 48 hrs by SRB assay; format: functional; conditions: NCI-H23, 48 h
NUGC-3 [28] = assay: Growth of human NUGC3 cells at 0.3 uM after 48 hrs by SRB assay; conditions: NUGC-3, 48 h
ACHN [29] = assay: Growth of human ACHN cells at 10 uM after 48 hrs by SRB assay
NCI-H23 [30] = assay: Growth inhibition of human NCI-H23 cells at 0.1 uM after 48 hrs by SRB assay; values are per cent of control; conditions: NCI-H23, 48 h
NCI-H23 [31] = assay: Growth inhibition of human NCI-H23 cells at 1 uM after 48 hrs by SRB assay; values are per cent of control; conditions: NCI-H23, 48 h
NUGC-3 [32] = assay: Growth inhibition of human NUGC3 cells at 10 uM after 48 hrs by SRB assay; values are per cent of control; conditions: NUGC-3, 48 h
NCI-H23 [33] = assay: Growth inhibition of human NCI-H23 cells at 3 uM after 48 hrs by SRB assay; values are per cent of control; conditions: NCI-H23, 48 h
ACHN [34] = assay: Growth of human ACHN cells at 0.3 uM after 48 hrs by SRB assay
HCT-15 [35] = assay: Growth inhibition of human HCT15 cells at 1 uM after 48 hrs by SRB assay; values are per cent of control; conditions: HCT-15, 48 h
MDA-MB-231 [36] = assay: Growth of human MDA-MB-231 cells at 1 uM after 48 hrs by SRB assay; conditions: MDA-MB-231, 48 h
PC-3 [37] = assay: Growth inhibition of human PC3 cells after 48 hrs by SRB assay; format: functional; conditions: PC-3, 48 h

Rho-related GTP-binding protein RhoB (Homo sapiens), sequence (P62745 whole entry): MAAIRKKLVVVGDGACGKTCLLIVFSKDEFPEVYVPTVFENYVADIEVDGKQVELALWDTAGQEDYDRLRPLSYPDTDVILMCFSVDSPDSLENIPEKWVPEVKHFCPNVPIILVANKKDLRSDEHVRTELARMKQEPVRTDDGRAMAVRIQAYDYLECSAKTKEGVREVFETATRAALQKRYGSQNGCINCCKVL

Compound | growth, % of control at 0.3 µM (PC-3 [2]) | growth, % of control at 3 µM (PC-3 [3]) | growth, % of control at 10 µM (NCI-H23 [4]) | GI50 (ACHN [5]) | GI50 (HCT-15 [6]; HCT-15, 48 h) | GI50 (NUGC-3 [7]) | growth, % of control at 0.1 µM (NUGC-3 [8]) | growth, % of control at 3 µM (NUGC-3 [9]) | growth, % of control at 0.1 µM (ACHN [10]) | growth, % of control at 10 µM (HCT-15 [11]) | growth, % of control at 10 µM (PC-3 [12]) | growth, % of control at 1 µM (NUGC-3 [13]) | growth, % of control at 0.3 µM (MDA-MB-231 [14]) | growth, % of control at 1 µM (PC-3 [15]) | growth, % of control at 10 µM (MDA-MB-231 [16]) | growth, % of control at 0.3 µM (NCI-H23 [17]) | growth, % of control at 3 µM (MDA-MB-231 [18]) | GI50 (MDA-MB-231 [24]) | GI50 (NCI-H23 [27]) | GI50 (PC-3 [37]) | other results
CCCCCCCCCCCCCCS(=O)(=O)N(C)CC[N+](C)(C)CC | 95.3% | 13.3% | 16.3% | 1300 nM | 1610 nM | 300 nM | 96.8% | 19% | 105% | 21.7% | -12.3% | 43.3% | 91.6% | 57.1% | 18.2% | 94.6% | 36.4% | 990 nM | 590 nM | 340 nM | Activity [1]: Active; growth, % of control at 0.3 µM (HCT-15 [19]): 96.8%; growth, % of control at 0.1 µM (MDA-MB-231 [20]): 99%; growth, % of control at 0.1 µM (PC-3 [21]): 96.5%; growth, % of control at 3 µM (ACHN [22]): 50.1%; growth, % of control at 0.1 µM (HCT-15 [23]): 98.2%; growth, % of control at 1 µM (ACHN [25]): 77.1%; growth, % of control at 3 µM (HCT-15 [26]): 41.1%; growth, % of control at 0.3 µM (NUGC-3 [28]): 95.6%; growth, % of control at 10 µM (ACHN [29]): 25%; growth, % of control at 0.1 µM (NCI-H23 [30]): 92.5%; growth, % of control at 1 µM (NCI-H23 [31]): 86.6%; growth, % of control at 10 µM (NUGC-3 [32]): 10.1%; growth, % of control at 3 µM (NCI-H23 [33]): 53.6%; growth, % of control at 0.3 µM (ACHN [34]): 104%; growth, % of control at 1 µM (HCT-15 [35]): 76.3%; growth, % of control at 1 µM (MDA-MB-231 [36]): 63.1%
CCCCCCCCCCCCCCCC(=O)N1CC[N+](C)(C)CC1 | – | – | – | – | 580 nM | 290 nM | – | – | – | – | – | – | – | – | – | – | – | – | – | 480 nM | Activity [1]: Active
CCCCCCCCCCCCCCCCS(=O)(=O)NCC(C)(C)C[N+](C)(C)CC | 99.5% | 12.9% | -10.9% | 2270 nM | 1350 nM | 570 nM | 115% | 18.8% | 108% | 21.3% | -11.1% | 43.8% | 103% | 69.4% | 27.1% | 92.1% | 66% | 2790 nM | 690 nM | 790 nM | growth, % of control at 0.3 µM (HCT-15 [19]): 138%; growth, % of control at 0.1 µM (MDA-MB-231 [20]): 108%; growth, % of control at 0.1 µM (PC-3 [21]): 109%; growth, % of control at 3 µM (ACHN [22]): 102%; growth, % of control at 0.1 µM (HCT-15 [23]): 141%; growth, % of control at 1 µM (ACHN [25]): 99.6%; growth, % of control at 3 µM (HCT-15 [26]): 40.2%; growth, % of control at 0.3 µM (NUGC-3 [28]): 108%; growth, % of control at 10 µM (ACHN [29]): 104%; growth, % of control at 0.1 µM (NCI-H23 [30]): 100%; growth, % of control at 1 µM (NCI-H23 [31]): 50.5%; growth, % of control at 10 µM (NUGC-3 [32]): 0%; growth, % of control at 3 µM (NCI-H23 [33]): 30.4%; growth, % of control at 0.3 µM (ACHN [34]): 100%; growth, % of control at 1 µM (HCT-15 [35]): 63.2%; growth, % of control at 1 µM (MDA-MB-231 [36]): 88.6%
C=CC[N+](C)(C)CCN(C)C(=O)CCCCCCCCCCCCC | – | – | – | 100 nM | – | 140 nM | – | – | – | – | – | – | – | – | – | – | – | 300 nM | 240 nM | 210 nM | GI50 (HCT-15 [6]): inactive
CCCCCCCCCCCCCCCCCCOP(=O)([O-])OC1CC[N+](C)(C)CC1 [PERIFOSINE] | – | – | – | – | – | 540 nM | – | – | – | – | – | – | – | – | – | – | – | – | – | 440 nM | –
CCCCCCCCCCCCCCCCS(=O)(=O)NCC(C)(C)C[N+](C)(C)C | 102% | 0.2% | 0.7% | 2210 nM | 560 nM | 430 nM | 106% | 14.7% | 122% | 11.7% | -14.6% | 33.6% | 95% | 51.8% | 16.5% | 102% | 49.5% | 1520 nM | 740 nM | 560 nM | growth, % of control at 0.3 µM (HCT-15 [19]): 132%; growth, % of control at 0.1 µM (MDA-MB-231 [20]): 95.6%; growth, % of control at 0.1 µM (PC-3 [21]): 107%; growth, % of control at 3 µM (ACHN [22]): 101%; growth, % of control at 0.1 µM (HCT-15 [23]): 136%; growth, % of control at 1 µM (ACHN [25]): 108%; growth, % of control at 3 µM (HCT-15 [26]): 17.6%; growth, % of control at 0.3 µM (NUGC-3 [28]): 87.1%; growth, % of control at 10 µM (ACHN [29]): 99.6%; growth, % of control at 0.1 µM (NCI-H23 [30]): 104%; growth, % of control at 1 µM (NCI-H23 [31]): 54.1%; growth, % of control at 10 µM (NUGC-3 [32]): 3%; growth, % of control at 3 µM (NCI-H23 [33]): 26.3%; growth, % of control at 0.3 µM (ACHN [34]): 114%; growth, % of control at 1 µM (HCT-15 [35]): 46.1%; growth, % of control at 1 µM (MDA-MB-231 [36]): 73.6%
